# Measurements from PubChem BioAssay AID2060898 (Molecular Pharmacology Branch, DTP, NCI, 2025).
# Test system: 616215-338-R-J1-PDC complex spheroid viability
# Assay: Anticancer human tumor 616215-338-R-J1-PDC patient-derived colon adenocarcinoma cell line growth inhibition [RAS]
# Settings: for IC50: curve of first compound; for viability, T/C: stronger effect = lower value
# Outline: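 Multi-cell-type spheroids: tumor cells plus HUVEC endothelial cells and mesenchymal stem cells. RAS-pathway inhibitors were combined with targeted agents, each dosed in half-log steps down from clinical Cmax, or from 10 microM when Cmax was unknown.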
# [1] = second compound 0.000949 µM, first compound 0.0316 µM
# [2] = second compound 0.000949 µM, first compound 0.1 µM
# [3] = second compound 0.000949 µM, first compound 0.316 µM
# [4] = second compound 0.000949 µM, first compound 1 µM
# [5] = second compound 0.003 µM, first compound 0.0316 µM
# [6] = second compound 0.003 µM, first compound 0.1 µM
# [7] = second compound 0.003 µM, first compound 0.316 µM
# [8] = second compound 0.003 µM, first compound 1 µM
# [9] = second compound 0.00949 µM, first compound 0.0316 µM
# [10] = second compound 0.00949 µM, first compound 0.1 µM
# [11] = second compound 0.00949 µM, first compound 0.316 µM
# [12] = second compound 0.00949 µM, first compound 1 µM
# [13] = second compound 0.03 µM, first compound 0.0316 µM
# [14] = second compound 0.03 µM, first compound 0.1 µM
# [15] = second compound 0.03 µM, first compound 0.316 µM
# [16] = second compound 0.03 µM, first compound 1 µM
# [17] = second compound 0.0949 µM, first compound 0.0316 µM
# [18] = second compound 0.0949 µM, first compound 0.1 µM
# [19] = second compound 0.0949 µM, first compound 0.316 µM
# [20] = second compound 0.0949 µM, first compound 1 µM
# [21] = second compound 0.3 µM, first compound 0.0316 µM
# [22] = second compound 0.3 µM, first compound 0.1 µM
# [23] = second compound 0.3 µM, first compound 0.316 µM
# [24] = second compound 0.3 µM, first compound 1 µM
# 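Also: spheroids exposed to agents for seven days before viability readout.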
# 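For viability, T/C in this document: 100% = DMSO vehicle control viability.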
structure (smiles),measurement,setting,value
CC(=O)OC12COC1CC(O)C1(C)C(=O)C(O)C3=C(C)C(OC(=O)C(O)C(NC(=O)OC(C)(C)C)c4ccccc4)CC(O)(C(OC(=O)c4ccccc4)C21)C3(C)C (stereo unspecified) + CCn1c(-c2cc(N3CCN(C)CC3)cnc2C(C)OC)c2c3cc(ccc31)-c1csc(n1)CC(NC(=O)C1CC1C)C(=O)N1CCCC(N1)C(=O)OCC(C)(C)C2,IC50,second compound 0.000949 µM,< 31.6 nM
same,IC50,second compound 0.003 µM,< 31.6 nM
same,IC50,second compound 0.00949 µM,< 31.6 nM
same,IC50,second compound 0.03 µM,< 31.6 nM
same,IC50,second compound 0.0949 µM,< 31.6 nM
same,IC50,second compound 0.3 µM,< 31.6 nM
same,"viability, T/C",[1],27.1%
same,"viability, T/C",[2],20.3%
same,"viability, T/C",[3],18.9%
same,"viability, T/C",[4],19.9%
same,"viability, T/C","second compound 0.000949 µM, first compound 3.16 µM",20.7%
same,"viability, T/C","second compound 0.000949 µM, first compound 10 µM",24%
same,"viability, T/C",[5],22.3%
same,"viability, T/C",[6],18.3%
same,"viability, T/C",[7],15.9%
same,"viability, T/C",[8],19.3%
same,"viability, T/C","second compound 0.003 µM, first compound 3.16 µM",18.8%
same,"viability, T/C","second compound 0.003 µM, first compound 10 µM",24%
same,"viability, T/C",[9],18.5%
same,"viability, T/C",[10],16.4%
same,"viability, T/C",[11],13.3%
same,"viability, T/C",[12],12%
same,"viability, T/C","second compound 0.00949 µM, first compound 3.16 µM",17.2%
same,"viability, T/C","second compound 0.00949 µM, first compound 10 µM",18.7%
same,"viability, T/C",[13],15.6%
same,"viability, T/C",[14],13.4%
same,"viability, T/C",[15],13.1%
same,"viability, T/C",[16],13.2%
same,"viability, T/C","second compound 0.03 µM, first compound 3.16 µM",14.5%
same,"viability, T/C","second compound 0.03 µM, first compound 10 µM",16.8%
same,"viability, T/C",[17],15.4%
same,"viability, T/C",[18],12.4%
same,"viability, T/C",[19],10.8%
same,"viability, T/C",[20],13.4%
same,"viability, T/C","second compound 0.0949 µM, first compound 3.16 µM",13.5%
same,"viability, T/C","second compound 0.0949 µM, first compound 10 µM",14%
same,"viability, T/C",[21],14.9%
same,"viability, T/C",[22],13.3%
same,"viability, T/C",[23],10.7%
same,"viability, T/C",[24],11.9%
same,"viability, T/C","second compound 0.3 µM, first compound 3.16 µM",13.9%
same,"viability, T/C","second compound 0.3 µM, first compound 10 µM",16.3%
CCc1c2c(nc3ccc(O)cc13)-c1cc3c(c(=O)n1C2)COC(=O)[C@]3(O)CC + CCn1c(-c2cc(N3CCN(C)CC3)cnc2C(C)OC)c2c3cc(ccc31)-c1csc(n1)CC(NC(=O)C1CC1C)C(=O)N1CCCC(N1)C(=O)OCC(C)(C)C2,IC50,second compound 0.000949 µM,12.4 nM
same,IC50,second compound 0.003 µM,6.6 nM
same,IC50,second compound 0.00949 µM,3.33 nM
same,IC50,second compound 0.03 µM,< 0.949 nM
same,IC50,second compound 0.0949 µM,< 0.949 nM
same,IC50,second compound 0.3 µM,< 0.949 nM
same,"viability, T/C","second compound 0.000949 µM, first compound 0.000949 µM",109%
same,"viability, T/C","second compound 0.000949 µM, first compound 0.003 µM",104%
same,"viability, T/C","second compound 0.000949 µM, first compound 0.00949 µM",51.5%
same,"viability, T/C","second compound 0.000949 µM, first compound 0.03 µM",35.6%
same,"viability, T/C","second compound 0.000949 µM, first compound 0.0949 µM",21.2%
same,"viability, T/C","second compound 0.000949 µM, first compound 0.3 µM",13.4%
same,"viability, T/C","second compound 0.003 µM, first compound 0.000949 µM",109%
same,"viability, T/C","second compound 0.003 µM, first compound 0.003 µM",94.8%
same,"viability, T/C","second compound 0.003 µM, first compound 0.00949 µM",29.1%
same,"viability, T/C","second compound 0.003 µM, first compound 0.03 µM",23.5%
same,"viability, T/C","second compound 0.003 µM, first compound 0.0949 µM",21.3%
same,"viability, T/C","second compound 0.003 µM, first compound 0.3 µM",12.1%
same,"viability, T/C","second compound 0.00949 µM, first compound 0.000949 µM",87.6%
same,"viability, T/C","second compound 0.00949 µM, first compound 0.003 µM",52.9%
same,"viability, T/C","second compound 0.00949 µM, first compound 0.00949 µM",21%
same,"viability, T/C","second compound 0.00949 µM, first compound 0.03 µM",22.7%
same,"viability, T/C","second compound 0.00949 µM, first compound 0.0949 µM",18.4%
same,"viability, T/C","second compound 0.00949 µM, first compound 0.3 µM",12.2%
same,"viability, T/C","second compound 0.03 µM, first compound 0.000949 µM",45.2%
same,"viability, T/C","second compound 0.03 µM, first compound 0.003 µM",29.1%
same,"viability, T/C","second compound 0.03 µM, first compound 0.00949 µM",23.2%
same,"viability, T/C","second compound 0.03 µM, first compound 0.03 µM",19.6%
same,"viability, T/C","second compound 0.03 µM, first compound 0.0949 µM",15.2%
same,"viability, T/C","second compound 0.03 µM, first compound 0.3 µM",8.75%
same,"viability, T/C","second compound 0.0949 µM, first compound 0.000949 µM",36.2%
same,"viability, T/C","second compound 0.0949 µM, first compound 0.003 µM",28.7%
same,"viability, T/C","second compound 0.0949 µM, first compound 0.00949 µM",18.1%
same,"viability, T/C","second compound 0.0949 µM, first compound 0.03 µM",17.6%
same,"viability, T/C","second compound 0.0949 µM, first compound 0.0949 µM",14.6%
same,"viability, T/C","second compound 0.0949 µM, first compound 0.3 µM",9.71%
same,"viability, T/C","second compound 0.3 µM, first compound 0.000949 µM",35.1%
same,"viability, T/C","second compound 0.3 µM, first compound 0.003 µM",29.8%
same,"viability, T/C","second compound 0.3 µM, first compound 0.00949 µM",24%
same,"viability, T/C","second compound 0.3 µM, first compound 0.03 µM",23.1%
same,"viability, T/C","second compound 0.3 µM, first compound 0.0949 µM",17.5%
same,"viability, T/C","second compound 0.3 µM, first compound 0.3 µM",10.5%
Nc1ccn(C2OC(CO)C(O)C2(F)F)c(=O)n1 (stereo unspecified) + CCn1c(-c2cc(N3CCN(C)CC3)cnc2C(C)OC)c2c3cc(ccc31)-c1csc(n1)CC(NC(=O)C1CC1C)C(=O)N1CCCC(N1)C(=O)OCC(C)(C)C2,IC50,second compound 0.000949 µM,11.5 nM
same,IC50,second compound 0.003 µM,7.36 nM
same,IC50,second compound 0.00949 µM,3.62 nM
same,IC50,second compound 0.03 µM,< 3.16 nM
same,IC50,second compound 0.0949 µM,< 3.16 nM
same,IC50,second compound 0.3 µM,< 3.16 nM
same,"viability, T/C","second compound 0.000949 µM, first compound 0.00316 µM",96.2%
same,"viability, T/C","second compound 0.000949 µM, first compound 0.01 µM",53.7%
same,"viability, T/C",[1],23.7%
same,"viability, T/C",[2],13.8%
same,"viability, T/C",[3],13.5%
same,"viability, T/C",[4],15.7%
same,"viability, T/C","second compound 0.003 µM, first compound 0.00316 µM",80.8%
same,"viability, T/C","second compound 0.003 µM, first compound 0.01 µM",38.6%
same,"viability, T/C",[5],20.2%
same,"viability, T/C",[6],10.3%
same,"viability, T/C",[7],11.4%
same,"viability, T/C",[8],11%
same,"viability, T/C","second compound 0.00949 µM, first compound 0.00316 µM",52.9%
same,"viability, T/C","second compound 0.00949 µM, first compound 0.01 µM",28.8%
same,"viability, T/C",[9],19.2%
same,"viability, T/C",[10],9.65%
same,"viability, T/C",[11],12.4%
same,"viability, T/C",[12],10.4%
same,"viability, T/C","second compound 0.03 µM, first compound 0.00316 µM",33.8%
same,"viability, T/C","second compound 0.03 µM, first compound 0.01 µM",25.8%
same,"viability, T/C",[13],18.5%
same,"viability, T/C",[14],9.6%
same,"viability, T/C",[15],8.72%
same,"viability, T/C",[16],9.03%
same,"viability, T/C","second compound 0.0949 µM, first compound 0.00316 µM",31.6%
same,"viability, T/C","second compound 0.0949 µM, first compound 0.01 µM",22.4%
same,"viability, T/C",[17],17.2%
same,"viability, T/C",[18],7.8%
same,"viability, T/C",[19],9.83%
same,"viability, T/C",[20],8.16%
same,"viability, T/C","second compound 0.3 µM, first compound 0.00316 µM",37.6%
same,"viability, T/C","second compound 0.3 µM, first compound 0.01 µM",25.7%
same,"viability, T/C",[21],21.4%
same,"viability, T/C",[22],12.1%
same,"viability, T/C",[23],9.28%
same,"viability, T/C",[24],8.49%
